Source: ChEMBL document CHEMBL5506037, “Synthesis of Heterocyclic Ring-Fused Bisnoralcohol Derivatives as Novel Small-Molecule Antiosteoporosis Agents” (J Med Chem, 2024)

How the values were obtained:
BMMC [1] = assay: Anti-osteoclastogenesis activity in M-CSF/RANKL-induced C57BL/6J mouse BMMC cells assessed as inhibition of osteoclast differentiation at 1 uM incubated for 7 days by TRAP staining based analysis relative to control; assay type: functional; settings: 168 h, time 7 day
BMMC [2] = assay: Anti-osteoclastogenesis activity in M-CSF/RANKL-induced C57BL/6J mouse BMMC cells assessed as inhibition of osteoclast differentiation at 10 uM incubated for 7 days by TRAP staining based analysis relative to control; assay type: functional; settings: 168 h, time 7 day
BMMC [3] = assay: Anti-osteoclastogenesis activity in M-CSF/RANKL-induced C57BL/6J mouse BMMC cells assessed as inhibition of osteoclast differentiation at 5 uM incubated for 7 days by TRAP staining based analysis relative to control; assay type: functional; settings: 168 h, time 7 day
[4] = Cytotoxicity against M-CSF induced C57BL/6J mouse BMMC cells assessed as cell viability at 10 uM incubated for 48 hrs by CCK-8 assay relative to control; assay type: toxicity, cell-based; settings: read-out: Activity
BMMC [5] = assay: Anti-osteoclastogenesis activity in M-CSF/RANKL-induced C57BL/6J mouse BMMC cells assessed as inhibition of osteoclast differentiation at 0.1 uM incubated for 7 days by TRAP staining based analysis relative to control; assay type: functional; settings: 168 h, time 7 day
BMMC [6] = assay: Anti-osteoclastogenesis activity in M-CSF/RANKL-induced C57BL/6J mouse BMMC cells assessed as inhibition of osteoclast differentiation incubated for 7 days by TRAP staining based analysis; assay type: functional, cell-based; settings: 168 h
Mus musculus [7] = assay: Anti-osteoporosis activity in ovariectomized C57BL/6 mouse assessed as prevention of bone loss by measuring increase in trabecular thickness at 25 ug/kg, sc administered every day for 6 weeks by micro-CT analysis relative to control; assay type: functional
Mus musculus [8] = assay: Anti-osteoporosis activity in ovariectomized C57BL/6 mouse assessed as prevention of bone loss by measuring increase in trabecular number at 25 ug/kg, sc administered every day for 6 weeks by micro-CT analysis relative to control; assay type: functional
Mus musculus [9] = assay: Anti-osteoporosis activity in ovariectomized C57BL/6 mouse assessed as prevention of bone loss by measuring decrease in trabecular spacing at 25 ug/kg, sc administered every day for 6 weeks by micro-CT analysis relative to control; assay type: functional; set-up: scale not given: the % may be the effect or the level left
Mus musculus [10] = assay: Anti-osteoporosis activity in ovariectomized C57BL/6 mouse assessed as prevention of bone loss by measuring increase in BV/TV at 25 ug/kg, sc administered every day for 6 weeks by micro-CT analysis relative to control; assay type: functional; settings: dose 25 µg/kg
[11] = Toxicity in ovariectomized female C57BL/6 mouse assessed as reduction in body weight at 25 ug/kg, sc administered every day for 6 weeks; assay type: organism-based; settings: in vivo, 0.025 mg/kg, 1008 h, dose 25 µg/kg

SMILES	inhibition at 1 µM (BMMC [1]) [%]	inhibition at 10 µM (BMMC [2]) [%]	inhibition at 5 µM (BMMC [3]) [%]	viability at 48 h, 10 µM [4] [%]	inhibition at 0.1 µM (BMMC [5]) [%]	also measured
C[C@H](CO)[C@H]1CC[C@H]2[C@@H]3CC=C4C(C)(C)c5nccnc5C[C@]4(C)[C@H]3CC[C@]12C	13.9	67.8	44.9	≥ 100	–	–
C[C@H](C(=O)Nc1nccs1)[C@H]1CC[C@H]2[C@@H]3CC=C4C(C)(C)c5nnsc5C[C@]4(C)[C@H]3CC[C@]12C	85.9	–	–	≥ 100	19.2	–
CC(C)CNC(=O)[C@@H](C)[C@H]1CC[C@H]2[C@@H]3CC=C4C(C)(C)c5nnsc5C[C@]4(C)[C@H]3CC[C@]12C	100	–	–	≥ 100	72.1	–
CCNC(=O)CCC[C@@H](C)[C@H]1CC[C@H]2[C@@H]3CC=C4C(C)(C)c5nnsc5C[C@]4(C)[C@H]3CC[C@]12C	100	–	–	≥ 100	15.8	–
C[C@H](C(=O)Nc1ccc(Cl)cc1)[C@H]1CC[C@H]2[C@@H]3CC=C4C(C)(C)c5nnsc5C[C@]4(C)[C@H]3CC[C@]12C	81	–	–	≥ 100	45.2	–
C[C@H](CO)[C@H]1CC[C@H]2[C@@H]3CC=C4C(C)(C)c5c(cnn5-c5ccccc5)C[C@]4(C)[C@H]3CC[C@]12C	0	18.9	0	≥ 100	–	–
C[C@H](CO)[C@H]1CC[C@H]2[C@@H]3CC=C4C(C)(C)c5[nH]ncc5C[C@]4(C)[C@H]3CC[C@]12C	34.6	100	87	≥ 100	–	–
CCCCCCNC(=O)[C@@H](C)[C@H]1CC[C@H]2[C@@H]3CC=C4C(C)(C)c5nnsc5C[C@]4(C)[C@H]3CC[C@]12C	87.2	–	–	≥ 100	50.1	–
C[C@H](C(=O)Nc1ccncc1)[C@H]1CC[C@H]2[C@@H]3CC=C4C(C)(C)c5nnsc5C[C@]4(C)[C@H]3CC[C@]12C	85.5	–	–	≥ 100	30.2	–
CCNC(=O)CCCC[C@@H](C)[C@H]1CC[C@H]2[C@@H]3CC=C4C(C)(C)c5nnsc5C[C@]4(C)[C@H]3CC[C@]12C	98.8	–	–	≥ 100	7.4	–
CCNC(=O)CC[C@@H](C)[C@H]1CC[C@H]2[C@@H]3CC=C4C(C)(C)c5nnsc5C[C@]4(C)[C@H]3CC[C@]12C	100	–	–	≥ 100	46.4	–
C[C@H](C(=O)N1CCOCC1)[C@H]1CC[C@H]2[C@@H]3CC=C4C(C)(C)c5nnsc5C[C@]4(C)[C@H]3CC[C@]12C	91.9	–	–	≥ 100	53.5	–
COc1ccc(NC(=O)[C@@H](C)[C@H]2CC[C@H]3[C@@H]4CC=C5C(C)(C)c6nnsc6C[C@]5(C)[C@H]4CC[C@]23C)cc1	100	–	–	≥ 100	69.6	–
CCCCNC(=O)[C@@H](C)[C@H]1CC[C@H]2[C@@H]3CC=C4C(C)(C)c5nnsc5C[C@]4(C)[C@H]3CC[C@]12C	100	–	–	≥ 100	76.3	–
CCNC(=O)C[C@@H](C)[C@H]1CC[C@H]2[C@@H]3CC=C4C(C)(C)c5nnsc5C[C@]4(C)[C@H]3CC[C@]12C	99.5	–	–	≥ 100	21.9	–
C[C@H](C(=O)Nc1ccc(Br)cc1)[C@H]1CC[C@H]2[C@@H]3CC=C4C(C)(C)c5nnsc5C[C@]4(C)[C@H]3CC[C@]12C	65.1	–	–	≥ 100	0	–
C[C@H](C(=O)Nc1ccc(F)cc1)[C@H]1CC[C@H]2[C@@H]3CC=C4C(C)(C)c5nnsc5C[C@]4(C)[C@H]3CC[C@]12C	91.9	–	–	≥ 100	47.5	–
Cc1nc2c(o1)C(C)(C)C1=CC[C@H]3[C@@H]4CC[C@H]([C@H](C)CO)[C@@]4(C)CC[C@@H]3[C@@]1(C)C2	43	89.8	73.8	≥ 100	–	–
C[C@H](C(=O)NC1CCCCC1)[C@H]1CC[C@H]2[C@@H]3CC=C4C(C)(C)c5nnsc5C[C@]4(C)[C@H]3CC[C@]12C	100	–	–	≥ 100	54	–
CCCNC(=O)[C@@H](C)[C@H]1CC[C@H]2[C@@H]3CC=C4C(C)(C)c5nnsc5C[C@]4(C)[C@H]3CC[C@]12C	100	–	–	≥ 100	72.7	–
C[C@H](CO)[C@H]1CC[C@H]2[C@@H]3CCC4=CC(=O)CC[C@]4(C)[C@H]3CC[C@]12C	–	100	78.6	≥ 100	–	IC50 (BMMC [6]): 2.33 µM
CC[C@H](C)[C@H](NC(=O)[C@H](CCC(=O)O)NC(=O)[C@H](CO)NC(=O)[C@@H](NC(=O)[C@@H](N)CO)C(C)C)C(=O)N[C@@H](CCC(N)=O)C(=O)N[C@@H](CC(C)C)C(=O)N[C@@H](CCSC)C(=O)N[C@@H](Cc1cnc[nH]1)C(=O)N[C@@H](CC(N)=O)C(=O)N[C@@H](CC(C)C)C(=O)NCC(=O)N[C@@H](CCCCN)C(=O)N[C@@H](Cc1cnc[nH]1)C(=O)N[C@@H](CC(C)C)C(=O)N[C@@H](CC(N)=O)C(=O)N[C@@H](CO)C(=O)N[C@@H](CCSC)C(=O)N[C@@H](CCC(=O)O)C(=O)N[C@@H](CCCNC(=N)N)C(=O)N[C@H](C(=O)N[C@@H](CCC(=O)O)C(=O)N[C@@H](Cc1c[nH]c2ccccc12)C(=O)N[C@@H](CC(C)C)C(=O)N[C@@H](CCCNC(=N)N)C(=O)N[C@@H](CCCCN)C(=O)N[C@@H](CCCCN)C(=O)N[C@@H](CC(C)C)C(=O)N[C@@H](CCC(N)=O)C(=O)N[C@@H](CC(=O)O)C(=O)N[C@H](C(=O)N[C@@H](Cc1cnc[nH]1)C(=O)N[C@@H](CC(N)=O)C(=O)N[C@@H](Cc1ccccc1)C(=O)O)C(C)C)C(C)C [TERIPARATIDE]	–	–	–	–	–	Activity (Mus musculus [7]): 86.08%; Activity (Mus musculus [8]): 41.75%; Activity (Mus musculus [9]): 52.76%; Activity (Mus musculus [10]): 81.68%; Activity [11]: Non-Toxic
C[C@H](C(=O)O)[C@H]1CC[C@H]2[C@@H]3CC=C4C(C)(C)c5nnsc5C[C@]4(C)[C@H]3CC[C@]12C	86.8	–	–	≥ 100	45.8	–
C[C@H](CO)[C@H]1CC[C@H]2[C@@H]3CC=C4C(C)(C)c5nnsc5C[C@]4(C)[C@H]3CC[C@]12C	75.8	100	100	≥ 100	–	–
C[C@H](CO)[C@H]1CC[C@H]2[C@@H]3CC=C4C(C)(C)c5nonc5C[C@]4(C)[C@H]3CC[C@]12C	42.4	100	90.5	≥ 100	–	–
C=CCNC(=O)[C@@H](C)[C@H]1CC[C@H]2[C@@H]3CC=C4C(C)(C)c5nnsc5C[C@]4(C)[C@H]3CC[C@]12C	98.3	–	–	≥ 100	61.1	–
CNC(=O)[C@@H](C)[C@H]1CC[C@H]2[C@@H]3CC=C4C(C)(C)c5nnsc5C[C@]4(C)[C@H]3CC[C@]12C	100	–	–	≥ 100	49.3	–
C[C@H](CO)[C@H]1CC[C@H]2[C@@H]3CC=C4C(C)(C)c5nc6ccccc6cc5C[C@]4(C)[C@H]3CC[C@]12C	37.8	93.9	47.2	≥ 100	–	–
C[C@H](CO)[C@H]1CC[C@H]2[C@@H]3CC=C4C(C)(C)c5nc(N)ncc5C[C@]4(C)[C@H]3CC[C@]12C	25.9	100	87.3	≥ 100	–	–
